Paper PMC4178172, “Molecular Determinants of Agonist Selectivity in Glutamate-Gated Chloride Channels Which Likely Explain the Agonist Selectivity of the Vertebrate Glycine and GABAA-ρ Receptors” (PLoS ONE, 2014)

Legend:
GluClα2b = target: T1, GluClα2b (Caenorhabditis elegans, UniProt O17548, R111L); test: whole-cell patch clamp, […] glutamate; type: cell-based
T1 construct: gene avr-15; homomeric receptor expressed in CHO-K1 cells
T1 sequence (O17548 21-478 R111L): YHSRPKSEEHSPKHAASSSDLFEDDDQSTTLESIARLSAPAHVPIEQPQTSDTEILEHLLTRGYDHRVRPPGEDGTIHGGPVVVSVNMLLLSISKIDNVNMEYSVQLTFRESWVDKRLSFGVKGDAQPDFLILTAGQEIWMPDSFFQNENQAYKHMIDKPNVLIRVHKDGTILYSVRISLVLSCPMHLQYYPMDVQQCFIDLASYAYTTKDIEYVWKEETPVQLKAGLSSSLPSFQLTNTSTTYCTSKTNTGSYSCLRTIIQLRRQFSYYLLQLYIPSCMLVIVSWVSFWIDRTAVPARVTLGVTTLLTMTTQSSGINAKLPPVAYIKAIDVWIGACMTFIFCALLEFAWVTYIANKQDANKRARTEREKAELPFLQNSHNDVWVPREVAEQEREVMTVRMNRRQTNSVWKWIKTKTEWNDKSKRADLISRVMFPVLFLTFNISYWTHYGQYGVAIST

GluClAc2 = target: T2, GluClAc2 (Aplysia californica, UniProt C7DLK0, Y161A); test: whole-cell patch clamp, […] glutamate; type: cell-based
T2 construct: homomeric receptor expressed in CHO-K1 cells
T2 sequence (C7DLK0 32-429 Y161A): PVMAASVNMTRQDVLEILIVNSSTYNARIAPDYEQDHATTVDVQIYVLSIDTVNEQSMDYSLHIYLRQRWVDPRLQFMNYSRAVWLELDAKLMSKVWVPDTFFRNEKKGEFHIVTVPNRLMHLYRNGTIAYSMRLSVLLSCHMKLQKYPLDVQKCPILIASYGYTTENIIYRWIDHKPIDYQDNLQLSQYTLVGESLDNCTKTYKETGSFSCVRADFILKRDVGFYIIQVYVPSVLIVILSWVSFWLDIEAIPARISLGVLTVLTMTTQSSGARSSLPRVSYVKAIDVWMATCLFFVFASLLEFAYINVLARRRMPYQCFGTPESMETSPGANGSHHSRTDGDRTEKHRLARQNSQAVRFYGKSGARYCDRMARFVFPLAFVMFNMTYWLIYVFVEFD

How did the “whole-cell patch clamp, 1-100 mM glutamate” value (GluClα2b) turn out when `N[C@@H](CCC(=O)O)C(=O)O` [glutamate] was run?
The value was “this mutation did not impede a robust response to glutamate at higher concentrations”.

And the “whole-cell patch clamp, 1 mM glutamate” value (GluClAc2)?
Its value is “its mutation to an alanine failed to cause any noticeable change in the response to glutamate”.
